Measurements taken from patent US5571793A, “Endoparasiticidal compositions based on open-chain tetradepsipeptides” (Bayer Aktiengesellschaft, priority 1993, dated 1996).

These compounds were tested on Haemonchus contortus (assay: In vivo nematode test Haemonchus contortus/sheep). Conditions: sheep infected experimentally with Haemonchus contortus; pure active compound orally and/or intravenously; dose at which nematode egg excretion with the faeces stops completely.
Procedure: Sheep which had been infected experimentally with Haemonchus contortus were treated after the prepatency period of the parasites had elapsed. The active compounds were administered orally and/or intravenously in the form of the pure active compound.
The degree of effectiveness is determined by quantitatively determining the nematode eggs excreted with the faeces before and after the treatment.
If egg excretion stops completely after the treatment, this means that the nematodes have been aborted or damaged in such a manner that they no longer produce eggs (dosis effectiva).
Active compounds which have been tested and effective dosage rates (dosis effectiva) can be seen from the Table which follows: […]

Compound | Dosis effectiva [mg/kg]
CCN[C@@H](CC(C)C)C(=O)O[C@H](C)C(=O)N(CC)[C@@H](CC(C)C)C(=O)O[C@H](Cc1ccccc1)C(=O)OC(C)(C)C [Example 1, tert.-Butyl-N-ethyl-L-leucyl-D-lactyl-N-ethyl-L-leucyl-D-3-phenyllactate] | 10
CCCN(Cc1ccccc1)[C@@H](CC(C)C)C(=O)O[C@H](C)C(=O)N(CCC)[C@@H](CC(C)C)C(=O)O[C@H](Cc1ccccc1)C(=O)O [Example 2, N-Benzyl-N-propyl-L-leucyl-D-lactyl-N-propyl-L-leucyl-D-phenyllactic acid] | 10
CN[C@@H](Cc1ccccc1)C(=O)O[C@H](C)C(=O)N(C)[C@H](Cc1ccccc1)C(=O)O[C@H](C)C(=O)OC(C)(C)C [Example 3, tert.-Butyl-N-methyl-L-phenylalanyl-D-lactyl-N-methyl-D-phenylalanyl-D-lactate] | 10
